Read-outs that look alike come from different tables or passages of the source.
Experiments:
PARP-1 = PARP-1 (Homo sapiens, UniProt P09874); test: PARP-1 inhibitory activity at the enzyme level (histone-coated plate, chemiluminescence); type: biochemical; conditions: for inhibition at 0.01 µM: 10 nM compound, read-out: Inhibition rate on PARP-1 (10 nM)
Method: Experimental method for PARP-1 inhibitory activity: taking out a 96-well plate pre-coated with histones, and adding a following enzyme reaction system and inhibitors of different concentrations into each well, including: 50 μL of a reaction buffer solution (Tris*HCl, pH 8.0), NAD^+, biotin-labeled activated DNA, PARP-1 enzyme, and an inhibitor; after reaction at a room temperature for 1 hour, adding 50 uL of avidin-labeled HRP into each well for reaction for 30 minutes; and then adding 100 μL of an HRP substrate, and detecting a chemiluminescence value on a SpectraMax M instrument. The percentage of enzyme activity is calculated by the following formula: Enzyme activity percentage (%)=(OD value administration hole-OD value background)/(OD value control hole−OD value background)×100%
(§1) Method for determining IC50 of PARP-1 and PI3Kα: diluting a drug concentration according to a three-fold concentration gradient, and detecting two duplicate wells at each concentration; taking the drug concentration as the abscissa and the percentage of enzyme activity corresponding to each concentration as the ordinate, and calculating to obtain inhibition IC50 values of all tested compounds by using Graphpad Prism5 for nonlinear regression.

PI3Kα = PI3Kα (Homo sapiens, UniProt P42336); test: PI3Kα inhibitory activity at the enzyme level (ADP detection by luciferase method); type: biochemical; conditions: for inhibition at 0.1 µM: 100 nM compound, read-out: Inhibition rate on PI3Kα (100 nM)
Chain of PI3Kα (P42336 whole entry): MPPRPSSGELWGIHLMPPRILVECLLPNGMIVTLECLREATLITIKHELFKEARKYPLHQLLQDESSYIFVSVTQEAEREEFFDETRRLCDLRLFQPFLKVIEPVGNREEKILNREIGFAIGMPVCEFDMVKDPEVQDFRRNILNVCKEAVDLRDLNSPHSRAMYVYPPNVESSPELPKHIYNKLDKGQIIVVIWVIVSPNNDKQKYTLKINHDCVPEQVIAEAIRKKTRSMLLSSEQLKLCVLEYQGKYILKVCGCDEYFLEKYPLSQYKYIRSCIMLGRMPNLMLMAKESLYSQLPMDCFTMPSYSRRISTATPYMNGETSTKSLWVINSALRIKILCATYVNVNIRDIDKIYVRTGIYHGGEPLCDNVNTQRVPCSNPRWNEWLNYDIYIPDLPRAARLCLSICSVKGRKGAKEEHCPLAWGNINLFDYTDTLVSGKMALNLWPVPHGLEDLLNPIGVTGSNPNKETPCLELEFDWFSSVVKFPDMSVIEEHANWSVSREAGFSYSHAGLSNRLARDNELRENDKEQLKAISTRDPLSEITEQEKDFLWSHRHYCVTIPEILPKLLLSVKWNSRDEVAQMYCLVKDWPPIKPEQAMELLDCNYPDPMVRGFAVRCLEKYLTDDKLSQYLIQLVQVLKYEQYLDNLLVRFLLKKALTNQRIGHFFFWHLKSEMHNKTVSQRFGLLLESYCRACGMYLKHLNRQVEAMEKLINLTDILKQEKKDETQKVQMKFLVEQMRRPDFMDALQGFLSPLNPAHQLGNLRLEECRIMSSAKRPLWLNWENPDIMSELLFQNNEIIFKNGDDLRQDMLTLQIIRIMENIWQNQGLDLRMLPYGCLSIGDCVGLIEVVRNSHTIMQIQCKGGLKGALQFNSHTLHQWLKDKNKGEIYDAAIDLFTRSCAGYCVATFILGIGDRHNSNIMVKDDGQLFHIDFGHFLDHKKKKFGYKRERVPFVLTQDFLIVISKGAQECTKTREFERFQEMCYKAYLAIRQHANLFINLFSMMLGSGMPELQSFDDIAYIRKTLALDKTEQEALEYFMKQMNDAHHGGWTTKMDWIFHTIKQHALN
Chain of PI3Kα (P27986 whole entry partner): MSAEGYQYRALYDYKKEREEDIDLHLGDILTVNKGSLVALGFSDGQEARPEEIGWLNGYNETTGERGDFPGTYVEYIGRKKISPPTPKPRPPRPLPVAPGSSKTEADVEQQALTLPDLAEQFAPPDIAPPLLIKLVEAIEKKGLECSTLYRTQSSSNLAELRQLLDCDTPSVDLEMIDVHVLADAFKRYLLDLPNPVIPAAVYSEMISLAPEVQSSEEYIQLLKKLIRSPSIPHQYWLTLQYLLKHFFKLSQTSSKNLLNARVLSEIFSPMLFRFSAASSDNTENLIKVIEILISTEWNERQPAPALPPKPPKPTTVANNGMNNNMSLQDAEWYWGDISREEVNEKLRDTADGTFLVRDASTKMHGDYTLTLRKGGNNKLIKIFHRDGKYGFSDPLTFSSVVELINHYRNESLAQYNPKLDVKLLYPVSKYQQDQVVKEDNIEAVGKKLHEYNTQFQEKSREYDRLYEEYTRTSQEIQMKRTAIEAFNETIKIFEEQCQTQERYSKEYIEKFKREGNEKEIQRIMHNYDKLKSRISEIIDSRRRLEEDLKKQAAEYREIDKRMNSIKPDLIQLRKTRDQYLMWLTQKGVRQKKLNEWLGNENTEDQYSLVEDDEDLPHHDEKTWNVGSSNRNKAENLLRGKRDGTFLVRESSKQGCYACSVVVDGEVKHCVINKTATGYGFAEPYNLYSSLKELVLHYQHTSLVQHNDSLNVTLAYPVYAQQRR
Method: Experimental method for PI3Kα inhibitory activity: simultaneously adding 40 mM Tris, pH 7.4, 10 mM MgCl2, 0.1 mg/ml BSA, 1 mM DTT, 10 μM ATP, PI3Kα kinase and a kinase substrate into different concentrations of compounds to be sieved to form a 50 μL reaction system, after reaction at 30° C. for 40 minutes, detecting an ADP content in the system through a luciferase method, and then after reaction for 5 minutes, detecting a chemiluminescence signal on an MD-SpectraMax M5 multi-function microplate reader, wherein the intensity of a value of the chemiluminescence signal is in direct proportion to […]. The detected value of the chemiluminescence signal is substituted into the following formula: Enzyme activity percentage (%)=(OD value administration hole-OD value background)/(OD value control hole−OD value background)×100%
as §1

[1] = system: HCT116 (human colon cancer cells); test: Tumor cell proliferation inhibition (SRB, 72 hours), HCT116; type: cell-based
Method: (§2) Inoculating HCT116 (human colon cancer cells), HCC1937 (human breast cancer cells), MDA-MB-231 (human breast cancer cells) and MDA-MB-468 (human breast cancer cells) in a logarithmic growth phase with a certain quantity in a 96-well plate (200 μL/well) for culture for 24 hours so as to adhere to walls and then adding drugs. Arranging 3 duplicate wells for each drug concentration, and setting corresponding zero-cut holes and blank controls. After 72 hours of drug action, adding 50% TCA (50 μL/well) into adherent cells, fixing at 4° C. for 1 hour, pouring a fixing solution, washing for 5 times with distilled water, and naturally drying. Adding 100 μL of 4 mg/mL SRB into each well, staining at a room temperature for 15 minutes, discarding, washing for 5 times with 1% glacial acetic acid, and naturally drying. Finally, adding 150 μL of a 10 mM Tris solution into each well, shaking to be uniform, and measuring OD values at a wavelength of 565 nm using a wavelength-adjustable microplate reader (VERSAmax™, Molecular Device).

[2] = system: HCC1937 (human breast cancer cells); test: Tumor cell proliferation inhibition (SRB, 72 hours), HCC1937; type: cell-based
Method: as §2

[3] = system: MDA-MB-231 (human breast cancer cells); test: Tumor cell proliferation inhibition (SRB, 72 hours), MDA-MB-231; type: cell-based
Method: as §2

[4] = system: MDA-MB-468 (human breast cancer cells); test: Tumor cell proliferation inhibition (SRB, 72 hours), MDA-MB-468; type: cell-based
Method: as §2

[5] = system: Human Breast Cancer MDA-MB-468 Cell Nude Mice Xenograft; test: Growth of human breast cancer MDA-MB-468 cell nude mice xenograft; type: in vivo; conditions: for Tumor Volumes / Tumor weights: abdominal cavity, once every 2 days; for Anti-tumor effect compared with the combination group olaparib (50 mg/kg)/BKM120 (27.5 mg/kg) (in words): p<0.05; for Inhibition of the growth of the MDA-MB-468 nude mice xenografts (in words) / Inhibition rate compared with positive drugs olaparib and BKM120 (in words): I-1 50 mg/kg, 1-3 50 mg/kg, olaparib 50 mg/kg/BKM120 27.5 mg/kg; for Tumor weights: after 34 days, in g (unit assumed)
Method: Preparing an MDA-MB-468 cell line in a logarithmic growth phase into a 2×10^7/mL cell suspension under sterile conditions, and inoculating 0.1 mL of the cell suspension under the skin of the right axilla of each nude mouse. Measuring the diameter of a nude mice xenograft with a vernier caliper, and randomly dividing the animals into groups after the tumors grew to about 100 mm^3. Dynamically observing an anti-tumor effect of the tested animals using a method of measuring the tumor diameter, wherein the frequency of measurements of the tumor diameter is once every 2 days, and the administration volume is 0.4 mL/20 g. After 34 days, killing the mice and surgically removing and weighing tumor pieces. The formula for calculating tumor volume (TV) is: TV=½×a×b^2, wherein a and b represent the length and the width respectively.

[6] = 12 days, 50 mg/kg (I-1: medium)
[7] = 18 days, 50 mg/kg (I-1: medium)
[8] = 24 days, 50 mg/kg (I-1: medium)
[9] = 30 days, 50 mg/kg (I-1: medium)
[10] = 34 days, 50 mg/kg (I-1: medium)

Chain of PARP-1 (P09874 whole entry): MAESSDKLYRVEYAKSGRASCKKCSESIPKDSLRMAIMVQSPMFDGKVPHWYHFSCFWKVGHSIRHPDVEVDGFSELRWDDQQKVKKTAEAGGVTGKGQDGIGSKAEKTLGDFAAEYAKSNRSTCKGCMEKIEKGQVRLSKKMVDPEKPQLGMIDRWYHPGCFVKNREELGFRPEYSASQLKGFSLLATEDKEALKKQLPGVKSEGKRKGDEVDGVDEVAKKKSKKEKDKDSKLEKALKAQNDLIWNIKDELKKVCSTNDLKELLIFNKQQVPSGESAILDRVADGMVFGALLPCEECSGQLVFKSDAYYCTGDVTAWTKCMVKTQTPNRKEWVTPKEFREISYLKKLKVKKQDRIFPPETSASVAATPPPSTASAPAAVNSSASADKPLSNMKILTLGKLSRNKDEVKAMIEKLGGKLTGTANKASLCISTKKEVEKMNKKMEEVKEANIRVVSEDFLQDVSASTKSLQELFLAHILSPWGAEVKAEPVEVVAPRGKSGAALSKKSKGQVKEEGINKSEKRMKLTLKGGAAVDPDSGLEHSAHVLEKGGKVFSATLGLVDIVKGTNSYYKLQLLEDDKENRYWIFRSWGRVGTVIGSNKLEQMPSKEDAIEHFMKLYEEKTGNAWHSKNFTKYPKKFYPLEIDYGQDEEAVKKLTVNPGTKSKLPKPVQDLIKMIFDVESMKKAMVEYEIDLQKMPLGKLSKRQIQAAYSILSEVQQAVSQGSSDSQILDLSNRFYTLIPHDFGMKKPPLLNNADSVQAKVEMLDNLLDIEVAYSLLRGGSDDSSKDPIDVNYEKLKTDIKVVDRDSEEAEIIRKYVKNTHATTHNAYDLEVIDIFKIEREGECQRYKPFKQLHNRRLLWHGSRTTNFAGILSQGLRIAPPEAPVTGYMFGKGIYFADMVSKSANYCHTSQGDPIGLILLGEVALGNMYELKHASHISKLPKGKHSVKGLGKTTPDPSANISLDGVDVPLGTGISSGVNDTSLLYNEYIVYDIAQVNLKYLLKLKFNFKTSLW

SMILES	IC50 (PARP-1)	inhibition at 0.01 µM (PARP-1)	IC50 (PI3Kα)	inhibition at 0.1 µM (PI3Kα)	IC50 ([1]; Homo sapiens, HCT-116, 72 h)	IC50 ([2]; Homo sapiens, HCC1937, 72 h)	IC50 ([3]; Homo sapiens, MDA-MB-231, 72 h)	IC50 ([4]; Homo sapiens, MDA-MB-468, 72 h)	IC50 [2]	IC50 [4]	Tumor Volumes ([5]; 0 day, 50 mg/kg (I-1: medium))	Anti-tumor effect compared with the combination group olaparib (50 mg/kg)/BKM120 (27.5 mg/kg) (in words) ([5]; 50 mg/kg)	Tumor Volumes ([5]; 6 days, 50 mg/kg (I-1: medium))	Tumor Volumes [5, 6]	Tumor Volumes [5, 7]	Tumor Volumes [5, 8]	Tumor Volumes [5, 9]	Tumor Volumes [5, 10]	Inhibition of the growth of the MDA-MB-468 nude mice xenografts (in words) [5]	Inhibition rate compared with positive drugs olaparib and BKM120 (in words) [5]	also measured
Nc1ccc(-c2nc3c(c(N4CCOCC4)n2)CCN(C(=O)c2cc(Cc4n[nH]c(=O)c5ccccc45)ccc2F)C3)cn1 [I-2, 4-(3-(2-(6-aminopyridin-3-yl)-4-morpholinyl-5,6,7,8-tetrahydropyrido[3,4-d]pyrimidin-7-formyl)-4-fluorobenzyl)phthalazin-1(2H)-one]	0.395 nM	93%	130 nM	66%	217 nM	121 nM	816 nM	1340 nM													
Nc1ncc(-c2nc3c(c(N4CCOCC4)n2)CCN(C(=O)c2cc(Cc4n[nH]c(=O)c5ccccc45)ccc2F)C3)cn1 [I-1, 4-(3-(2-(2-aminopyrimidin-5-yl)-4-morpholinyl-5,6,7,8-tetrahydropyrido [3,4-d]pyrimidin-7-formyl)-4-fluorobenzyl) phthalazin-1(2H)-one]	3.75 nM	81%	69 nM	66%				< 1000 nM	81 nM	909 nM	94.95 mm^3	obviously superior	136.45 mm^3	222.15 mm^3	301.78 mm^3	399.10 mm^3	489.89 mm^3	551.70 mm^3	significantly inhibit the growth	higher	Tumor Volumes ([5]; 0 day, high, 100 mg/kg): 93.30 mm^3; Tumor Volumes ([5]; 0 day, low, 25 mg/kg): 96.16 mm^3; Dose dependence of tumor growth inhibition (in words) ([5]; 25, 50, 100 mg/kg): dose-dependent manner; Tumor Volumes ([5]; 6 days, high, 100 mg/kg): 122.80 mm^3; Tumor Volumes ([5]; 6 days, low, 25 mg/kg): 205.61 mm^3; Tumor Volumes ([5]; 12 days, high, 100 mg/kg): 145.60 mm^3; Tumor Volumes ([5]; 12 days, low, 25 mg/kg): 303.37 mm^3; Tumor Volumes ([5]; 18 days, high, 100 mg/kg): 186.00 mm^3; Tumor Volumes ([5]; 18 days, low, 25 mg/kg): 401.23 mm^3; Tumor Volumes ([5]; 24 days, high, 100 mg/kg): 209.30 mm^3; Tumor Volumes ([5]; 24 days, low, 25 mg/kg): 555.25 mm^3; Tumor Volumes ([5]; 30 days, high, 100 mg/kg): 234.10 mm^3; Tumor Volumes ([5]; 30 days, low, 25 mg/kg): 707.38 mm^3; Tumor Volumes ([5]; 34 days, high, 100 mg/kg): 250.00 mm^3; Tumor Volumes ([5]; 34 days, low, 25 mg/kg): 808.40 mm^3; Tumor weights ([5]; 50 mg/kg (I-1: medium)): 0.54; Tumor weights ([5]; high, 100 mg/kg): 0.34; Tumor weights ([5]; low, 25 mg/kg): 0.85
Nc1cc(C(F)(F)F)c(-c2nc3c(c(N4CCOCC4)n2)CCN(C(=O)c2cc(Cc4n[nH]c(=O)c5ccccc45)ccc2F)C3)cn1 [I-3, 4-(3-(2-(6-amino-4-(trifluoromethyl)pyridin-3-yl)-4-morpholinyl-5,6,7,8-tetrahydropyrido [3,4-d]pyrimidin-7-formyl)-4-fluorobenzyl)phthalazin-1(2H)-one]	4.9 nM	55%	194 nM	34%	< 1000 nM	< 1000 nM			504 nM	266 nM	93.00 mm^3	obviously superior	142.00 mm^3	190.90 mm^3	216.60 mm^3	241.50 mm^3	280.80 mm^3	310.10 mm^3	significantly inhibit the growth	higher	IC50 [1]: 775 nM; IC50 [3]: 155 nM; Anti-tumor effect, ranking among the groups (in words) ([5]; 50 mg/kg): optimal; Tumor weights ([5]; 50 mg/kg (I-1: medium)): 0.44
C[C@@H]1CN(c2nc(-c3cnc(N)nc3)nc3c2CCN(C(=O)c2cc(Cc4n[nH]c(=O)c5ccccc45)ccc2F)C3)C[C@H](C)O1 [I-12, 4-(3-(2-(2-aminopyrimidin-5-yl)-4-((2S,6R)-2,6-dimethylmorpholinyl)-5,6,7,8-tetrahydropyrido [3,4-d]pyrimidin-7-formyl)-4-fluorobenzyl) phthalazin-1(2H)-one]	3.87 nM	76%	92.6 nM	40%	1010 nM	784 nM	1130 nM	1580 nM													melting point: 204 to 206 °C
O=C(c1cc(Cc2n[nH]c(=O)c3ccccc23)ccc1F)N1CCc2c(nc(-c3cccc4[nH]ncc34)nc2N2CCOCC2)C1 [I-8, 4-(3-(2-(1H-indazole-4-yl)-4-morpholinyl-5,6,7,8-tetrahydropyrido[3,4-d]pyrimidin-7-formyl)-4-fluorobenzyl)phthalazin-1(2H)-one]		91%		42%	536 nM	482 nM	708 nM	1150 nM													
